{"source": "patent US6583334B1", "about": "“Ovariectomized mouse model for human menopause” (Board of Trustees operating Michigan State University, priority 2000, dated 2003)", "key": {"mammary gland": {"system": "mammary gland", "test": "Mammary gland wholemount morphology after E in OVX mice", "assay_type": "in vivo, BALB/c female mice", "description": "(§1) Ten-week-old or 9-12 month-old BALB/c female mice from our own colony were bilaterally ovariectomized (OVX) under Nembutal anesthesia 1 or 5 weeks prior to E treatment. […] Injection was chosen as the method of systemic administration to optimize precision and reproducibility of hormone dosage. Serum levels of E were determined after OVX and E injection by radioimmunoassay using a commercial kit (Diagnostic Products Corp., Los Angeles, Calif.) according to the suppliers instructions. […] Therefore, in all experiments except time course studies, mammary glands were analyzed at 72 h after E treatment for DNA histoautoradiogrpahy and at 96 h after E treatment for morphological analysis."}, "[1]": {"system": "mammary epithelial and stromal cells", "test": "DNA histoautoradiography (3H-thymidine labeling index) after E in OVX mice", "assay_type": "in vivo, BALB/c female mice", "details": "for maximum proliferative response, 5 wk vs 1 wk post OVX: dose response study", "description": "Ten-week-old or 9-12 month-old BALB/c female mice from our own colony were bilaterally ovariectomized (OVX) under Nembutal anesthesia 1 or 5 weeks prior to E treatment. […] Injection was chosen as the method of systemic administration to optimize precision and reproducibility of hormone dosage.\nAt various times after E injection, animals received a single ip injection of [^3H]thymidine in a dosage of 2 μCi/g BW 1 h before sacrifice. The mammary glands were removed, fixed and processed as wholemounts followed by embedding and sectioning for histoautcradiographic analysis as described previously. Histological sections were examined at 400× magnification to determine the DNA labeling indices (LIs) of epithelial and stromal cells. […] In parallel, stromal cell LIs were determined for areas adjacent to and distal from duct ends. Adjacent areas were defined to be within […] of the duct end (i.e. in the same microscope field at 400× magnification) and the distal areas were defined to be more than 400 μm away from the duct end. A minimum of 10 individual structures were evaluated for each of 5-9 mice per experimental group."}, "[2]": {"test": "Serum levels of E by radioimmunoassay", "assay_type": "in vivo, BALB/c female mice", "details": "female, BALB/c, mouse, 24 h after injection of 1 μg E at 5 wks post OVX, n=4, read-out: E serum level", "description": "as §1"}, "[3]": {"system": "progesterone receptor (PR)", "test": "Steroid hormone binding assay ([3H]R5020) for PR concentration after E", "assay_type": "in vivo, BALB/c female mice", "description": "To determine PR concentration, cytoplasmic extracts were prepared separately for mammary gland and uteri as described previously (Haslam, S. Z., et al., Endocrinol 108:825-830 (1981)). Mammary gland and uterine cytoplasmic extracts were incubated with a single saturating concentration of 20 nM [^3H]R5020 with 100-fold excess radioinert dexamethasone (for suppression of progestin binding to glucocorticoid receptors) or with 100-fold excess radioinert R5020. Specific binding was determined using a dextran-coated charcoal assay procedure as previously described (Haslam, S. Z., et al., Endocrinol 108:825-830(1981)). Tissue DNA was quantitated as previously described (Ceriotti, G., J Biol Chem 198:297-303 (1952))."}, "PR": {"system": "PR", "test": "PR immunohistochemistry/immunofluorescence after E", "assay_type": "in vivo, mice", "source_text": "A dissociation between E stimulation of cell proliferation and PR regulation in mouse mammary gland has previously been reported (Fendrick, J. L., et al., J Mammary Gland Biol Neoplasia 3:7-22 (1998)). Although E appears to mediate proliferation of epithelial cells indirectly via stroma, E acts directly in epithelial cells to increase PR levels (Haslam, S. Z., Endocrinol 122:860-867 (1988)). Thus, our observations of increased responsiveness to the proliferative effect, but decreased responsiveness to the PR regulatory effect of E indicate that mammary epithelial and stromal cells are affected differently by long-term OVX. To confirm this observation, we have also used immunohistochemical analysis to determine the percentage of PR positive cells and PR concentration per cell, using a fluorescein-conjugated secondary antibody detection system, similar to the ER immunofluorescence assay herein. […] Future studies are planned to determine the mechanistic basis of these different responses to OVX. A similar dissociation of estrogenic regulation of proliferation and PR level has recently been reported for normal human breast (Clark, R. B., et al., Cancer Res 57:4987-4991 (1997)). […] In contrast, since ER and PR do co-localize in the same cells, E appears to act directly to regulate PR in breast epithelial cells. […]"}, "[4]": {"system": "progesterone receptor (PR)", "test": "PR ligand binding assay, time course of E induction of PR", "assay_type": "in vivo, BALB/c virgin mice", "details": "for increase in PR levels: single injection of E", "description": "Hormone- or control-treated mammary glands were analyzed for progesterone receptor (PR) levels using a dextran-coated charcoal ligand binding assay (Haslam, S. G., Endocrinology 195:789-795 (1979)). Tissue DNA was quantitated as previously described (Ceriotti, G., J Biol Chem 198:297-303 (1952))."}, "[5]": {"system": "MCF-7 human breast carcinoma cell line", "details": "cited from earlier work"}, "mammary gland duct ends": {"system": "mammary gland duct ends", "test": "Elvax implants of RU486 or ICI 182,780: duct end enlargement in E+P injected OVX mice", "assay_type": "in vivo, BALB/c virgin mice", "details": "for reduction of number of enlarged duct ends induced by E+P: implant vs control implant; for number of enlarged duct ends (mean ± S.E.M.) per implanted mammary gland: 3 days E + P", "description": "Ten-week old BALB/c virgin mice from our own colony were bilaterally ovariectomized 1 or 5 weeks (wks) before hormone treatment. All mice received sc daily injections of 1 μg 17b-estradiol (E)+1 mg progesterone (P) as a suspension in 0.04% gum arabic in 0.85% NaCl; control groups received vehicle only. The E+P dosage was determined from previous studies on mouse mammary gland (Magnusson, C., et al., Int J Cancer 81:339-344 (1999); and Beral V., et al., Lancet 350:1047-1059 (1997)) on the basis that it produced modest sidebranching and alveolar bud development ([…]., Endocrinology 122:464-470 (1998)), and resembled the normal breast tissue of postmenopausal women who had received […]., et al., J Clin Endocrinol Metab 84:4559-4565 (1999)). […] The effects of the implants on the mammary gland were quantified morphometrically by capturing a digitized microscopic image of the mammary gland wholemount at 10× magnification using NIH/Image One software. The numbers and size of duct ends were measured within a 2 cm radius of the implant. Duct ends were considered to be enlarged if they were 1.0 mm or greater in diameter at the 10× magnification."}, "[6]": {"details": "24 hr after E injection, 5 wk post OVX"}}, "note": "Where “and” joins values, the source holds several entries; their conditions need not be identical. Equal values may be shown once. Entries after “also recorded” stand apart in the source; their conditions may differ. Read-outs that look alike come from different tables or passages of the source.", "data": [{"smiles": "C[C@]12CC[C@@H]3c4ccc(O)cc4CC[C@H]3[C@@H]1CC[C@@H]2O", "note": "[E, 17β-estradiol]", "values": [{"measurement": "percentage of mammary glands exhibiting stimulation of duct ends", "setting": "mammary gland; 5 wk post OVX, after E treatment (single ip 1 μg, 4 days later)", "value": 100, "unit": "%"}, {"measurement": "extent of stimulatory response to E as a function of time after ovariectomy", "setting": "mammary gland; 9-12 month old mice, OVX 1, 3 or 5 weeks prior to E", "value": "identical to that obtained in 10-week-old mice"}, {"measurement": "effect on mammary gland morphology", "setting": "mammary gland; E treatment at 1 wk post OVX", "value": "no effect on morphology"}, {"measurement": "effect on mammary gland morphology", "setting": "mammary gland; E treatment at 5 wk post OVX (late postmenopausal)", "value": "pronounced enlargement of duct ends; also recorded: produced enlarged duct ends"}, {"measurement": "time of maximal morphological response after E injection", "setting": "mammary gland; mouse, in vivo", "value": 96, "unit": "h"}, {"measurement": "morphological and DNA synthesis results", "setting": "mammary gland; ovariectomized plus adrenalectomized mice", "value": "identical to those obtained with ovariectomy alone"}, {"measurement": "stimulation of DNA synthesis in stromal cells adjacent to duct ends, 5 wk vs 1 wk post OVX", "setting": "[1]; 1 μg E, 72 h", "value": 4, "unit": "fold"}, {"measurement": "ED 50 of E-induced proliferation", "setting": "[1]; 1 vs 5 wk post OVX", "value": "identical"}, {"measurement": "DNA synthesis in ducts", "setting": "[1]; E-treated, 1 and 5 wk post OVX", "value": "little or no DNA synthesis"}, {"measurement": "maximal epithelial proliferative response, 5 wk vs 1 wk post OVX", "setting": "[1]; after 3 days of daily sc E injection", "value": 2.6, "unit": "fold"}, {"measurement": "increased proliferative response in mammary stromal cells", "setting": "[1]; after long-term OVX (discussion)", "value": 3, "unit": "fold"}, {"measurement": "E-induced stimulation of DNA synthesis in duct ends, 5 wk vs 1 wk post OVX", "setting": "[1]; duct end epithelium, 1 μg E, 72 h", "value": 6.5, "unit": "fold"}, {"measurement": "maximum proliferative response, 5 wk vs 1 wk post OVX", "setting": "[1]; epithelial cells, 72 h", "value": 5.6, "unit": "fold"}, {"measurement": "steady state stromal cell proliferation, 5 wk vs 1 wk post OVX", "setting": "[1]; long-term daily E treatment", "value": 2, "unit": "fold"}, {"measurement": "steady state epithelial proliferation, 5 wk vs 1 wk post OVX", "setting": "[1]; long-term daily E treatment up to 28 days", "value": "2 fold and 2.3 fold"}, {"measurement": "time of maximal DNA synthesis / proliferative response after E injection", "setting": "[1]; mammary epithelial and stromal cells", "value": 72, "unit": "h"}, {"measurement": "maximum proliferative response, 5 wk vs 1 wk post OVX", "setting": "[1]; stromal cells, 72 h", "value": 2.5, "unit": "fold"}, {"measurement": "concentration at 24 h", "setting": "[2]", "value": "0.031 ± 0.0078", "unit": "ng/mL"}, {"measurement": "increase in PR in mammary gland", "setting": "[3]; 12, 24 and 36 h after E injection, 5 wk post OVX", "value": "No increase"}, {"measurement": "increase in PR binding in mammary gland", "setting": "[3]; 24 hr after E injection, 1 wk post OVX", "value": 2.5, "unit": "fold"}, {"measurement": "increase in PR binding in mammary gland", "setting": "[3]; [6]", "value": "failed to increase; also recorded: no significant increase"}, {"measurement": "increase in PR in uteri", "setting": "[3]; [6]", "value": 8, "unit": "fold"}, {"measurement": "increase in PR concentration per cell", "setting": "PR; 1 wk post OVX E-treated mammary glands", "value": 2, "unit": "fold"}, {"measurement": "numbers of PR positive cells or amount of PR per cell", "setting": "PR; 5 wk post OVX E-treated glands", "value": "no significant increase"}, {"measurement": "number of daily E injections until PR levels increased above control", "setting": "[4]; 5 wk post OVX", "value": 7, "unit": "daily E injections"}, {"measurement": "increase in PR levels", "setting": "[4]; 1 wk post OVX", "value": "2.5 fold and 2 fold"}, {"measurement": "increase in PR levels", "setting": "[4]; 5 wk post OVX", "value": "failed to increase PR levels"}, {"measurement": "dose for maximal proliferative response", "setting": "[5]; MCF-7 cells deprived of estrogen for 1-6 months", "value": "10^−14 M"}, {"measurement": "dose for maximal proliferative response", "setting": "[5]; MCF-7 cells, not estrogen-deprived", "value": "10^−10 M"}]}, {"smiles": "C[C@]12CC[C@@H]3c4ccc(O)cc4C[C@@H](CCCCCCCCC[S+]([O-])CCCC(F)(F)C(F)(F)F)[C@H]3[C@@H]1CC[C@@H]2O", "note": "(stereo partly shown) [ICI 182,780]", "values": [{"measurement": "reduction of number of enlarged duct ends induced by E+P", "setting": "mammary gland duct ends; 5 wk post OVX", "value": 8, "unit": "fold"}, {"measurement": "number of enlarged duct ends (mean ± S.E.M.) per implanted mammary gland", "setting": "mammary gland duct ends; late postmenopause (5 wk post OVX), 0.1 μg ICI 182,780 implant, n = 8", "value": "1.0 ± 1.0"}]}, {"smiles": "CC#C[C@]1(O)CC[C@H]2[C@@H]3CCC4=CC(=O)CCC4=C3[C@@H](c3ccc(N(C)C)cc3)C[C@@]21C", "note": "[RU486]", "values": [{"measurement": "reduction of number of enlarged duct ends induced by E+P", "setting": "mammary gland duct ends; 1 wk post OVX", "value": 9, "unit": "fold"}, {"measurement": "number of enlarged duct ends (mean ± S.E.M.) per implanted mammary gland", "setting": "mammary gland duct ends; early postmenopause (1 wk post OVX), 0.1 μg RU486 implant", "value": "0.75 ± 0.25"}, {"measurement": "number of enlarged duct ends (mean ± S.E.M.) per implanted mammary gland", "setting": "mammary gland duct ends; late postmenopause (5 wk post OVX), 0.1 μg RU486 implant", "value": "9.0 ± 1.0"}]}]}
